Patent US20240209014A1, “NOVEL SPINOSYN PRODRUGS” (Acies Bio d.o.o., priority 2021, published 2024)
Read-outs that look alike come from different tables or passages of the source.

How the values were obtained:
[1] = Stability of J1A, J1B and J7 at different pH values (LC-MS); assay type: physicochemical
Procedure: Stability of compounds J1A, J1B and J7 was evaluated at different pH values. Differential stability/conversion to the active ingredient is expected to result in condition-specific activation and thereby to higher specificity towards target pests.
(§1) Stock solutions of the compounds were prepared at concentration of 0.1 mol/L. 10 μL of the stock solutions were transferred to 0.75 ml of the buffer solutions with pH values of 4, 5, 9 and 11. The resulting solutions were incubated for 10 minutes and 3 and 24 h. After specified times samples were analyzed using LC-MS. The compounds J1A, J1B, J7 and the active compound butenyl spinosyn were quantified. It is seen that the three compounds are converted to the active form preferably in alkaline conditions.

[2] = test system: larvae of Ostrinia nubilialis (development stage L1); assay: Insecticide efficacy, corn leaf dip, Henderson-Tilton method; assay type: in vivo; details: for % efficacy (Henderson-Tilton): Ostrinia, foliar
Procedure: Insecticide activities of the compounds of this invention were assessed in comparison with commercially available samples of spinosad (LGC (Dr. Ehrenstorfer); Product code: DRE-C16972830) and spinetoram (LGC (Dr. Ehrenstorfer); Product code: DRE-C16972770). Solutions of spinosyn compounds were prepared by adding 0.05% Tween 80, lowering pH to 5.95 and sonicating. Two concentrations of each compound were used, 0.1 μg/ml and 0.3 μg/mL, with each condition tested in four parallels.
Freshly collected corn leaves were dipped into the prepared solutions. After dipping leaves were left to dry at room temperature for 1 hour. Each dry leaf was then infested with 4 larvae of Ostrinia nubilialis (development stage L1), and the experimental device was incubated at 21° C.-23° C. for 24 h in order to optimize insect development. At three timings post infestation (1 day, 3 days and 6 days), the insecticide efficacy is evaluated from the number of living larvae using the Henderson-Tilton method. Untreated control was integrated for normalization and validation of larvae health.

Kinetic solubility assay = assay type: physicochemical; details: 25 °C, kinetic from dmso stock, dose conc 200 μM, 25±2° C.
Procedure: Solubility of the compounds of the invention was assessed using kinetic solubility assay and compared to solubility of butenyl spinosyn. Stock solutions of spinosyn compounds were prepared in DMSO at mM concentration). 10 uL of the stock solutions were added into 490 of in K.S. 5.4 buffer of pH 5.4 (80 mM phosphoric acid, acetic acid, boric acid buffer, adjusted the pH to pH 5.4 with 1 N HCl and 1N NaOH) or K.S. 7.4 buffer with pH of 7.4 (80 mM phosphoric acid, acetic acid, boric acid buffer, adjusted the pH to pH 7.4 with 1 N HCl and 1N NaOH). The solutions were incubated with shaking at room […] temperature (25±2° C.) for 24 hours. 200 uL of each solution were then transferred into a new MultiScreen filter plate (Membrane of polycarbonate) and filtered by millipore vacuum manifold, and the filtrate was collected. The concentrtions of tested compounds in the filtered samples were analyzed by HPLC analysis calibrated by a standard curve generated by injection of 3 standard solutions of the relevant compound with concentrations of 1, 20, 200 μM.

[3] = test system: honey bees (Apis melifera carnica, Pollman 1879); assay: Single dose acute oral toxicity test on adult worker honey bees; assay type: in vivo
Procedure: Toxicity of the compounds of this invention towards honey bees (Apis melifera carnica, Pollman 1879) was assessed in comparison with commercially available samples of spinosad (LGC (Dr. Ehrenstorfer); Product code: DRE-C16972830) and the naturally produced compound butenyl spinosyn alpha 1. Solutions of spinosyn compounds were prepared in 100 mM ammonium acetate, pH=5, and later diluted in 50% (500 g/L) sucrose solution in water to final concentrations. Two final concentrations were used for each compound, 7.76 μmol/L and 15.53 μmol/L.
Single dose acute oral toxicity tests were conducted on adult worker bees according to previously described standard methods (Medrzycki at el., (2013)). Each compound and condition were tested in two parallels. Briefly, each parallel experiment consisted of 5 cages with 20 honey bees per cage. […] After uptake of the solutions honey bees were supplied with standard 50% sucrose solution and observed at 24 h and 48 h and the number of dead and live bees was estimated.
Ammonium acetate solution with pH 5 was used as the negative control.

[4] = Stability of J1Aa and J7a at different pH values (LC-MS); assay type: physicochemical
Procedure: Stability of compounds J1Aa and J7a was evaluated at different pH values. Differential stability/conversion to the active ingredient is expected to result in condition-specific activation and thereby to higher specificity towards target pests.
as §1, with “The resulting solutions were incubated for 10 minutes and 3 and 24 h.” left out, “J1Aa and J7a” for “J1A, J1B, J7”, “compound” for “compound butenyl”, “spinosyn A” for “spinosyn”, “two” for “three”

[5] = single oral dose 0.078 nmol/bee, 24 h after application
[6] = single oral dose 0.078 nmol/bee, 48 h after application
[7] = single oral dose 0.155 nmol/bee, 24 h after application
[8] = single oral dose 0.155 nmol/bee, 48 h after application

## CC/C=C/[C@H]1CCC[C@H](OC2CCC([N+](C)(C)COC(=O)C(C)(C)C)C(C)O2)[C@@H](C)C(=O)C2=C[C@@H]3[C@@H](C=C[C@@H]4C[C@@H](OC5OC(C)C(OC)C(OC)C5OC)C[C@@H]34)[C@@H]2CC(=O)O1 (stereo partly shown) [Compound J1A]
[1]; buffer pH 4, 0.16 h
  BuSPN Area % (active butenyl spinosyn released): 0.0%
  Compound (J1A/J1B/J7) Area % remaining: 5.7%
[1]; buffer pH 4, 3 h
  BuSPN Area % (active butenyl spinosyn released): 0.0%
  Compound (J1A/J1B/J7) Area % remaining: 2.0%
[1]; buffer pH 4, 24 h
  BuSPN Area % (active butenyl spinosyn released): 0.0%
  Compound (J1A/J1B/J7) Area % remaining: 0.1%
[1]; buffer pH 5, 0.16 h
  BuSPN Area % (active butenyl spinosyn released): 0.1%
  Compound (J1A/J1B/J7) Area % remaining: 99.4%
[1]; buffer pH 5, 3 h
  BuSPN Area % (active butenyl spinosyn released): 0.1%
  Compound (J1A/J1B/J7) Area % remaining: 99.3%
[1]; buffer pH 5, 24 h
  BuSPN Area % (active butenyl spinosyn released): 1.7%
  Compound (J1A/J1B/J7) Area % remaining: 97.4%
[1]; buffer pH 9, 0.16 h
  BuSPN Area % (active butenyl spinosyn released): 32.6%
  Compound (J1A/J1B/J7) Area % remaining: 66.4%
[1]; buffer pH 9, 3 h
  BuSPN Area % (active butenyl spinosyn released): 71.8%
  Compound (J1A/J1B/J7) Area % remaining: 26.6%
[1]; buffer pH 9, 24 h
  BuSPN Area % (active butenyl spinosyn released): 46.6%
  Compound (J1A/J1B/J7) Area % remaining: 0.0%
[1]; buffer pH 11, 0.16 h
  BuSPN Area % (active butenyl spinosyn released): 80.7%
  Compound (J1A/J1B/J7) Area % remaining: 18.4%
[1]; buffer pH 11, 3 h
  BuSPN Area % (active butenyl spinosyn released): 98.0%
  Compound (J1A/J1B/J7) Area % remaining: 0.5%
[2]; 0.1 and 0.3 μg/mL, leaf dip
  insecticidal activity on Ostrinia nubilialis larvae (in words): extremely potent insecticidal activity
[2]; 24 h, read-out: % Efficacy, dose 0.1 μg a.i./ml, 1 day post infestation
  % efficacy (Henderson-Tilton): 2%
[2]; 24 h, read-out: % Efficacy, dose 0.3 μg a.i./ml, 1 day post infestation
  % efficacy (Henderson-Tilton): 0%
[2]; 72 h, read-out: % Efficacy, dose 0.1 μg a.i./ml, 3 days post infestation
  % efficacy (Henderson-Tilton): 44%
[2]; 72 h, read-out: % Efficacy, dose 0.3 μg a.i./ml, 3 days post infestation
  % efficacy (Henderson-Tilton): 63%
[2]; 144 h, read-out: % Efficacy, dose 0.1 μg a.i./ml, 6 days post infestation
  % efficacy (Henderson-Tilton): 89%
[2]; 144 h, read-out: % Efficacy, dose 0.3 μg a.i./ml, 6 days post infestation
  % efficacy (Henderson-Tilton): 100%
Kinetic solubility assay; pH 5.4, aqueous buffer, K.S. 5.4 buffer, read-out: Kinetic Solubility pH = 5.4
  solubility kinetic at 24 h: 189 µM
Kinetic solubility assay; pH 7.4, aqueous buffer, K.S. 7.4 buffer, read-out: Kinetic Solubility pH = 7.4
  solubility kinetic at 24 h: 143 µM
[3]; [5]
  % of surviving honey bees: 95%
[3]; [6]
  % of surviving honey bees: 92%
[3]; [7]
  % of surviving honey bees: 89%
[3]; [8]
  % of surviving honey bees: 75%

## CC[C@H]1CCC[C@H](OC2CCC([N+](C)(C)COC(=O)C(C)(C)C)C(C)O2)[C@@H](C)C(=O)C2=C[C@@H]3[C@@H](C=C[C@@H]4C[C@@H](OC5OC(C)C(OC)C(OC)C5OC)C[C@@H]34)[C@@H]2CC(=O)O1 (stereo partly shown) [Compound J1Aa]
[4]; buffer pH 4, 0.16 h
  Compound (J1Aa/J7a) Area % remaining: 94.2%
  SPN Area % (active spinosyn A released): 5.8%
[4]; buffer pH 4, 6 h
  Compound (J1Aa/J7a) Area % remaining: 92.9%
  SPN Area % (active spinosyn A released): 7.1%
[4]; buffer pH 4, 12 h
  Compound (J1Aa/J7a) Area % remaining: 93.8%
  SPN Area % (active spinosyn A released): 6.2%
[4]; buffer pH 4, 24 h
  Compound (J1Aa/J7a) Area % remaining: 93.5%
  SPN Area % (active spinosyn A released): 6.5%
[4]; buffer pH 5, 0.16 h
  Compound (J1Aa/J7a) Area % remaining: 94.1%
  SPN Area % (active spinosyn A released): 5.9%
[4]; buffer pH 5, 6 h
  Compound (J1Aa/J7a) Area % remaining: 91.0%
  SPN Area % (active spinosyn A released): 9.0%
[4]; buffer pH 5, 12 h
  Compound (J1Aa/J7a) Area % remaining: 92.0%
  SPN Area % (active spinosyn A released): 8.0%
[4]; buffer pH 5, 24 h
  Compound (J1Aa/J7a) Area % remaining: 90.4%
  SPN Area % (active spinosyn A released): 9.6%
[4]; buffer pH 9, 0.16 h
  Compound (J1Aa/J7a) Area % remaining: 33.1%
  SPN Area % (active spinosyn A released): 66.9%
[4]; buffer pH 9, 6 h
  Compound (J1Aa/J7a) Area % remaining: 0.0%
  SPN Area % (active spinosyn A released): 100.0%
[4]; buffer pH 11, 0.16 h
  Compound (J1Aa/J7a) Area % remaining: 0.0%
  SPN Area % (active spinosyn A released): 100.0%
[3]; [5]
  % of surviving honey bees: 99%
[3]; [6]
  % of surviving honey bees: 82%
[3]; [7]
  % of surviving honey bees: 91%
[3]; [8]
  % of surviving honey bees: 42%
